According to patent US9809626B2, “Antibacterial agents: salinamide derivatives” (priority 2012, dated 2017):
pIC50: −log10 of the molar value. Values after ≈ are worked out from the molar mass of the structure shown. Read-outs that look alike come from different tables or passages of the source. Numbered stars: 1 amine (or outer) side, 2 acyl side, 3 side chain; on linkers, the order of the positions; unused ones are H or OH. Bridge positions count the residues as written; N and C are the ends. Square brackets hold non-standard residues; d marks the D form. Peptide text beside a SMILES is read from it. * marks the point of attachment. X3 = C[C@@H](Oc1ccc([C@H](N[*:1])C(=O)[*:2])cc1)C(O)(/C=C/C(=O)[*:3])CCl; X1 = C[C@@H](Oc1ccc([C@H](N[*:1])C(=O)[*:2])cc1)C1(/C=C/C(=O)[*:3])CO1; Pentanoyl(2R-Me,3R-OH,4-Me) = CC(C)[C@@H](O)[C@@H](C)C(=O)*; d(aIle) = CC[C@H](C)[C@@H](N)C(=O)O; d(aThr) = C[C@@H](O)[C@@H](N)C(=O)O; NMeF = CN[C@@H](Cc1ccccc1)C(=O)O

Columns and labels:
[1] = system: rifamycin-, CBR703-, streptolydigin-, myxopyronin- and lipiarmycin-resistant mutants; conditions: disclosed herein
[2] = system: human RNAP I, II, and III; assay: Radiochemical assay with human RNAP I, II, and III (HeLaScribe Nuclear Extract); assay type: biochemical; conditions: for pIC50: read-out: IC50 human RNAP I/II/III
Procedure: Radiochemical assays with human RNAP I, II, and III were performed essentially as described [Sawadogo and Roeder, Cell 43:165-75, 1985]. Reaction mixtures contained (20 μl): 0-100 μM test compound, 8 U HeLaScribe Nuclear Extract (Promega, Inc.), 1 μg human placental DNA (Sigma-Aldrich), 400 μM ATP, 400 μM [α^32P]UTP (0.11 Bq/fmol), 400 μM CTP, 400 μM GTP, 50 mM Tris-HCl, pH 8.0, 7 mM HEPES-NaOH, 70 mM (NH4)2SO4, 50 mM KCl, 12 mM MgCl2, 5 mM DTT, 0.1 mM EDTA, 0.08 mM phenylmethylsulfonyl fluoride, and 16% glycerol. Reaction components other than DNA and NTPs were pre-incubated 10 min at 30° C., DNA was added and reaction mixtures were incubated 15 min at 30° C., NTPs were added and reaction mixtures were incubated 60 min at 30° C. Reaction mixtures were spotted on DE81 filter discs (Whatman, Inc.; pre-wetted with water) and incubated 1 min at room temperature. Filters were washed with 3×3 ml Na2HPO4, 2×3 ml water, and 3 ml ethanol, using a filter manifold (Hoefer, Inc.). Filters were placed in scintillation vials containing 10 ml Scintiverse BD Cocktail (Thermo Fisher, Inc.), and radioactivity was quantified by scintillation counting (LS6500; Beckman-Coulter, Inc.).
(§1) Half-maximal inhibitory concentrations (IC50s) were calculated by non-linear regression in SigmaPlot (SPSS, Inc.).

[3] = biological target: Escherichia coli RNAP σ70 holoenzyme (Escherichia coli, UniProt P0A8T7+P0A8V2); assay: Fluorescence-detected RNAP assay, Escherichia coli RNAP; assay type: biochemical; conditions: fluorescent-detected RNAP assays
Procedure: Fluorescence-detected RNAP assays with Escherichia coli RNAP were performed by a modification of the procedure of Kuhlman et al., Anal. Biochem. 324:183-190, 2004]. Reaction mixtures contained (20 μl): 0-100 nM test compound, 75 nM Escherichia coli RNAP σ^70 holoenzyme, 20 nM 384 bp DNA fragment containing the bacteriophage T4 N25 promoter, 100 μM ATP, 100 μM GTP, 100 μM UTP, 100 μM CTP, 50 mM Tris-HCl, pH 8.0, 100 mM KCl, 10 mM MgCl2, 1 mM DTT, 10 μg/ml bovine serum albumin, and 5.5% glycerol. Reaction components other than DNA and NTPs were pre-incubated for 10 min at 37° C. Reactions were carried out by addition of DNA and incubation for 5 min at 37° C., followed by addition of NTPs and incubation for 60 min at 37° C. DNA was removed by addition of 1 μl 5 mM CaCl2 and 2 U DNasel (Ambion, Inc.), followed by incubation for 90 min at 37° C. RNA was quantified by addition of 100 μl RiboGreen RNA Quantitation Reagent (Invitrogen, Inc.; 1:500 dilution in Tris-HCl, pH 8.0, 1 mM EDTA), followed by incubation for 10 min at 25° C., followed by measurement of fluorescence intensity [excitation wavelength=485 nm and emission wavelength=535 nm; QuantaMaster QM1 spectrofluorometer (PTI, Inc.)].
as §1

[4] = system: Vero E6 cells (ATCC CRL1586); assay: Cytotoxicity to mammalian cells in culture (CellTiter96 assay); assay type: cell-based; conditions: for MIC50 Vero E6 ATCC CRL1586: Table 3
From the text: MICs for mammalian cells (Vero E6) in culture were quantified using CellTiter96 assay (Promega. Inc.; procedures as specified by the manufacturer).

[5] = biological target: RNAP-promoter open complex (Escherichia coli, UniProt P0A8T7+P0A8V2); assay: Formation of the RNAP-promoter open complex; assay type: biochemical
[6] = system: Gram-positive bacterial pathogens; conditions: reported previously (Trischman et al. 1994; Moore et al. 1999); cited from earlier work
[7] = system: Gram-positive and Gram-negative bacterial RNAP; conditions: reported previously (Miao et al. 1997); cited from earlier work
[8] = system: bacterial cells in culture; conditions: Ebright et al., WO/2012/129173; cited from earlier work
[9] = system: rifamycin-, CBR703-, streptolydigin-, myxopyronin- and lipiarmycin-resistant mutants; conditions: Ebright et al., WO/2012/129173; cited from earlier work
[10] = system: RNAP; assay: Mechanism of transcription inhibition (nucleotide addition, trigger loop, NTP competition); assay type: biochemical
[11] = system: Escherichia coli D21f2tolC; assay: Antibacterial activity, broth microdilution; assay type: cell-based; conditions: Escherichia coli, D21F2TOLC, read-out: MIC50 Escherichia coli D21f2tolC
From the text: (§2) Antibacterial activity was quantified using broth microdilution [Clinical and Laboratory Standards Institute (CLSI/NCCLS), Methods for Dilution Antimicrobial Susceptibility Tests for Bacteria That Grow Aerobically; Approved Standard, Eighth Edition. CLIS Document M07-A8 (CLIS, Wayne Pa.), 2009]. Assays with Enterobacter cloacae ATCC13047, Pseudomonas aeruginosa ATCC10145, and Escherichia coli D21f2to1C, employed a starting cell density of 2-5×10^5 cfu/ml, Mueller Hinton II cation adjusted broth (BD Biosciences, Inc.), and an air atmosphere. Assays with Haemophilus influenzae ATCC49247 and Neisseria gonorrhoeae ATCC19424 employed a starting cell density of 2-5×10^5 cfu/ml, Haemophilus Test Medium broth (Barry et al., 1993) and a 5% CO2/95% air atmosphere. MIC50 was defined as the minimal concentration resulting in ≧50% inhibition of bacterial growth.

[12] = system: Haemophilus influenzae ATCC49247; assay: Antibacterial activity, broth microdilution; assay type: cell-based; conditions: Gram-negative bacterial pathogen
From the text: as §2

[13] = system: Pseudomonas aeruginosa ATCC10145; assay: Antibacterial activity, broth microdilution; assay type: cell-based; conditions: Gram-negative bacterial pathogen
From the text: as §2

[14] = system: Enterobacter cloacae ATCC13047; assay: Antibacterial activity, broth microdilution; assay type: cell-based; conditions: for MIC50: Enterobacter cloacae, ATCC13047, minimal concentration resulting in ≧50% inhibition of bacterial growth, read-out: MIC50 Enterobacter cloacae ATCC 13047; for antibacterial activity against Enterobacter cloacae: Gram-negative bacterial pathogen
From the text: as §2

[15] = system: Neisseria gonorrhoeae ATCC19424; assay: Antibacterial activity, broth microdilution; assay type: cell-based; conditions: Gram-negative bacterial pathogen
From the text: as §2

[16] = system: Gram-positive and Gram-negative bacterial RNAP; assay: Inhibition of bacterial RNAP in vitro (statement); assay type: biochemical; conditions: disclosed herein

Sequence of Escherichia coli RNAP σ70 holoenzyme (P0A8T7 whole entry, the tested form may be a part): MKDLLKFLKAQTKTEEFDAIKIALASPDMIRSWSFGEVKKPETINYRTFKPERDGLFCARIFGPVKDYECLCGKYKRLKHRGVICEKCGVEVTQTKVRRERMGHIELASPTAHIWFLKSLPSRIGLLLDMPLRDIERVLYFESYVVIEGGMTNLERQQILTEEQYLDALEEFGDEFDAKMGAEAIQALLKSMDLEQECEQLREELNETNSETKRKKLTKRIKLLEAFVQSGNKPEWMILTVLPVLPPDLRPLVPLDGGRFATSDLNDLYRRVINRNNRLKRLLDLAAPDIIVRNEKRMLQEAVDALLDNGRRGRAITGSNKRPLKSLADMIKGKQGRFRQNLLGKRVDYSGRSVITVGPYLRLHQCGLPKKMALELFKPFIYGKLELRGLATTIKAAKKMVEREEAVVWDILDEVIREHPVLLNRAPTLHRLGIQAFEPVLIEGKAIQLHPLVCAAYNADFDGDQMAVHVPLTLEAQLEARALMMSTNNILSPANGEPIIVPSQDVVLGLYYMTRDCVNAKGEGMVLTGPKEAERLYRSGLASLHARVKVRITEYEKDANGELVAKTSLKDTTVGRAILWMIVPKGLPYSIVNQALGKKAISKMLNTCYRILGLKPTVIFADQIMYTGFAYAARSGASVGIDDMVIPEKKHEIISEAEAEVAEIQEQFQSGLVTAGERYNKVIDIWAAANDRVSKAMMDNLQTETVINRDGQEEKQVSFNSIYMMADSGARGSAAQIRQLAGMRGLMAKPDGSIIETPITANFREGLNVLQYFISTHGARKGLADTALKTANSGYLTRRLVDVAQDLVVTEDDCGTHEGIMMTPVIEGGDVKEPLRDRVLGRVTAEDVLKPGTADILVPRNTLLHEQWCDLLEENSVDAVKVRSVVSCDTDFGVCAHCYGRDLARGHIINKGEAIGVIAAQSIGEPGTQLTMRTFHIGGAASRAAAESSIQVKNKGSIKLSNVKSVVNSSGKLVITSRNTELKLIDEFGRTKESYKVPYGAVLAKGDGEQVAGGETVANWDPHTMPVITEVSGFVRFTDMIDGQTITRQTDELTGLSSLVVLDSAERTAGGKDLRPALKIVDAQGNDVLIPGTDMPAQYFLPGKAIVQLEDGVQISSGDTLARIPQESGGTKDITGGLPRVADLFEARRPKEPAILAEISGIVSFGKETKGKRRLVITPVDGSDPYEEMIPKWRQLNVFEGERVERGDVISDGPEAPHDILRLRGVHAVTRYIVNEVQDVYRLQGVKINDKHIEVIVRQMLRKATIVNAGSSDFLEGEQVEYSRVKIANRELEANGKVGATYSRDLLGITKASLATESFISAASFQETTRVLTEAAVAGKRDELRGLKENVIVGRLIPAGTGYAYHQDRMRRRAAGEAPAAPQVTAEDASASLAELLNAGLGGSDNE
Sequence of Escherichia coli RNAP σ70 holoenzyme (P0A8V2 whole entry, the tested form may be a part): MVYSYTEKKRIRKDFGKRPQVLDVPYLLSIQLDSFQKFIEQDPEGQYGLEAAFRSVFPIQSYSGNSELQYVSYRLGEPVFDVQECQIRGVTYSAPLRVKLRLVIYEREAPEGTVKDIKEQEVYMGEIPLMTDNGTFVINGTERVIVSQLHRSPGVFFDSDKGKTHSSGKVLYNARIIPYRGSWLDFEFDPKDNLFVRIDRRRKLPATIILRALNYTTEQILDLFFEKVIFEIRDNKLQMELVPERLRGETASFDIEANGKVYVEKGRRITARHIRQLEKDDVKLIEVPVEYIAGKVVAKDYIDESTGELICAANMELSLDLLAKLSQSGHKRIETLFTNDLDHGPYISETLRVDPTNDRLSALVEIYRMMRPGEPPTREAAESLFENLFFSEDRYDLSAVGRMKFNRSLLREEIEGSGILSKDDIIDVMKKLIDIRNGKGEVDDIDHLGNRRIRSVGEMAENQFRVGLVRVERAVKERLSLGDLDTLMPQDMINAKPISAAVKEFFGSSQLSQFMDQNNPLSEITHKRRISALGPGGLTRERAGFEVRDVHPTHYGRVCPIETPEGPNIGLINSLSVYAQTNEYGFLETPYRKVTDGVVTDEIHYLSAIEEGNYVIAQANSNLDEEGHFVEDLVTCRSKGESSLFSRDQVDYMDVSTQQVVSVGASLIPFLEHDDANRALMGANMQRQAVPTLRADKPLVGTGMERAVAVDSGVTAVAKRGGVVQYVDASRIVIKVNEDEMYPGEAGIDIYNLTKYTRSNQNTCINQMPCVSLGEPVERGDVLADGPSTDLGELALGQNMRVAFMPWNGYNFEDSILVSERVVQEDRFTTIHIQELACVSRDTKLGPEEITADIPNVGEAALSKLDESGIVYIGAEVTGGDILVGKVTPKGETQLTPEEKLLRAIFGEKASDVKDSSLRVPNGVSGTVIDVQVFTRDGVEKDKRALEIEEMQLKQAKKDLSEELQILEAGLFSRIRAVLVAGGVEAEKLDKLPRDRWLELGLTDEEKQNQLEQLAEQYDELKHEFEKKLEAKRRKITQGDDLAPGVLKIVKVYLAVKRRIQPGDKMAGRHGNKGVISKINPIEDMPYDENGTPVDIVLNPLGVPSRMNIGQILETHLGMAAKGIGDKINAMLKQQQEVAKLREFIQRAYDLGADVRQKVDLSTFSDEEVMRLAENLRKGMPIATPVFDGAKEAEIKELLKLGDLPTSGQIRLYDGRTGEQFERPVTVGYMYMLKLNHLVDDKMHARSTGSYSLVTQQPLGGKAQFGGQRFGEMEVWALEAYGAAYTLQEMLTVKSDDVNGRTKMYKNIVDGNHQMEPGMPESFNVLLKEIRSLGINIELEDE
Sequence of Escherichia coli RNAP σ70 holoenzyme (P0A7Z4 whole entry, further chain, the tested form may be a part): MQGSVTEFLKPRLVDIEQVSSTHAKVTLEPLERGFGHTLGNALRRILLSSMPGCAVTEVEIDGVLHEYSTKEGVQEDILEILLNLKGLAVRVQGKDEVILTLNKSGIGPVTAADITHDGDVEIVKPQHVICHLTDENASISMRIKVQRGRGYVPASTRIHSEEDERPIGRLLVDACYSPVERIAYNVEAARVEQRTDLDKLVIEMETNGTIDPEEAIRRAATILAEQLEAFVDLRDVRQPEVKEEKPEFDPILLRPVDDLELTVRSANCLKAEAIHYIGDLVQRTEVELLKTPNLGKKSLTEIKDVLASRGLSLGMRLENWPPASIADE
Sequence of Escherichia coli RNAP σ70 holoenzyme (P0A800 whole entry, further chain, the tested form may be a part): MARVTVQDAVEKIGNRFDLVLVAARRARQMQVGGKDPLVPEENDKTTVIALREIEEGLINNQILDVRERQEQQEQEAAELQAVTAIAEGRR
Sequence of Escherichia coli RNAP σ70 holoenzyme (P00579 whole entry, further chain, the tested form may be a part): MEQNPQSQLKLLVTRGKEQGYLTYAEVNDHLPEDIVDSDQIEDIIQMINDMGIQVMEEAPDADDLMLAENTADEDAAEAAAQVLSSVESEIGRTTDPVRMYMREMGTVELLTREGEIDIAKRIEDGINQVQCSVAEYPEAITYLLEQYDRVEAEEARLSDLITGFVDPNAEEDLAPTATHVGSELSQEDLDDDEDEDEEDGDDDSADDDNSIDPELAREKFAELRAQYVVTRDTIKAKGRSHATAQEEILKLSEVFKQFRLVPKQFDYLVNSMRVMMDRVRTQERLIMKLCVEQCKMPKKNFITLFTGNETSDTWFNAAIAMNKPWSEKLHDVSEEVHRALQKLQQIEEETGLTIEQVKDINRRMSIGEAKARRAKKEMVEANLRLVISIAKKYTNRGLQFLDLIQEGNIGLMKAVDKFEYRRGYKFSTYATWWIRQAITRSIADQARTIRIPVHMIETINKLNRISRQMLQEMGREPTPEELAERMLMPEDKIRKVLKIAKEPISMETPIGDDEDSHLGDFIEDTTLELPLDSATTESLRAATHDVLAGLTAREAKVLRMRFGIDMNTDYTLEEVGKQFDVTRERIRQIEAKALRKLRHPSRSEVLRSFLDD

SMILES	inhibition of human RNAP I, II, and III [2]	pIC50 [2]	pIC50 [3]	inhibition of growth of mammalian cells in culture [4]	MIC50 Vero E6 ATCC CRL1586 [4] [µg/mL]	antibacterial activity against Gram-positive bacterial pathogens [6]	MIC50 [11] [µg/mL]	antibacterial activity against Haemophilus influenzae [12]	antibacterial activity against Pseudomonas aeruginosa [13]	MIC50 [14] [µg/mL]	antibacterial activity against Enterobacter cloacae [14]	antibacterial activity against Neisseria gonorrhoeae [15]	further results
CC[C@H](C)[C@H]1NC(=O)[C@@H](NC(=O)[C@H](C)[C@H](O)C(C)C)[C@@H](C)OC(=O)[C@@H]2COC(=O)CNC(=O)/C=C/C3(CO3)[C@@H](C)Oc3ccc(cc3)[C@H](NC1=O)C(=O)N(C)[C@@H](Cc1ccccc1)C(=O)N[C@H]([C@@H](C)O)C(=O)N2 (stereo partly drawn) [SalA (1), salinamide A] ({Pentanoyl(2R-Me,3R-OH,4-Me)}-T[d(aIle)][X1][NMeF][d(aThr)]S; ester 1-C; linker 3-6 via G)	do not detectably inhibit	< 4.00	6.00	do not detectably inhibit	>100	exhibit antibacterial activity	0.024 (≈ 0.0235 µM)	exhibit antibacterial activity	exhibit antibacterial activity	1.56 (≈ 1.53 µM)	exhibit antibacterial activity	exhibit antibacterial activity	cross-resistance of streptolydigin-resistant, myxopyronin-resistant, and lipiarmycin-resistant mutants with Sal [1]: do not exhibit cross-resistance; inhibition of formation of the RNAP-promoter open complex in transcription initiation [5]: does not inhibit; inhibition of Gram-positive and Gram-negative bacterial RNAP in vitro [7]: inhibits; inhibition of RNA synthesis in bacterial cells in culture [8]: inhibits; cross-resistance of CBR703-resistant mutants to Sal [9]: not cross-resistant; cross-resistance of rifamycin-resistant mutants to Sal [9]: not cross-resistant; inhibition of nucleotide addition in transcription initiation and transcription elongation [10]: inhibits; inhibition of wild-type RNAP versus RNAP-derivative having a deletion of the trigger loop [10]: equal extents; mode of transcription inhibition with respect to NTP substrate [10]: noncompetitive
CC[C@H](C)[C@H]1NC(=O)[C@@H](NC(=O)[C@H](C)[C@H](O)C(C)C)[C@@H](C)OC(=O)[C@@H]2COC(=O)CNC(=O)/C=C/C(O)(CCl)[C@@H](C)Oc3ccc(cc3)[C@H](NC1=O)C(=O)N(C)[C@@H](Cc1ccccc1)C(=O)N[C@H]([C@@H](C)O)C(=O)N2 (stereo partly drawn) [SalB (2), salinamide B] ({Pentanoyl(2R-Me,3R-OH,4-Me)}-T[d(aIle)][X3][NMeF][d(aThr)]S; ester 1-C; linker 3-6 via G)	do not detectably inhibit	< 4.00	6.00	do not detectably inhibit	>100	exhibit antibacterial activity	0.098 (≈ 0.0927 µM)	exhibit antibacterial activity	exhibit antibacterial activity	6.25 (≈ 5.92 µM)	exhibit antibacterial activity	exhibit antibacterial activity	inhibition of Gram-positive and Gram-negative bacterial RNAP in vitro [16]: inhibits
